pKd: −log10 of the molar value.
Tests used:
MLKL [1] = target: T1, MLKL (Homo sapiens, UniProt Q8NB16); test: Measurement of binding affinity with MLKL receptor (competitive binding assay, Kd); set-up: made in house; host or cells: HEK 293 cell line (T7 phage in E. coli BL21-derived host is also described)
T1 sequence (Q8NB16 1-471): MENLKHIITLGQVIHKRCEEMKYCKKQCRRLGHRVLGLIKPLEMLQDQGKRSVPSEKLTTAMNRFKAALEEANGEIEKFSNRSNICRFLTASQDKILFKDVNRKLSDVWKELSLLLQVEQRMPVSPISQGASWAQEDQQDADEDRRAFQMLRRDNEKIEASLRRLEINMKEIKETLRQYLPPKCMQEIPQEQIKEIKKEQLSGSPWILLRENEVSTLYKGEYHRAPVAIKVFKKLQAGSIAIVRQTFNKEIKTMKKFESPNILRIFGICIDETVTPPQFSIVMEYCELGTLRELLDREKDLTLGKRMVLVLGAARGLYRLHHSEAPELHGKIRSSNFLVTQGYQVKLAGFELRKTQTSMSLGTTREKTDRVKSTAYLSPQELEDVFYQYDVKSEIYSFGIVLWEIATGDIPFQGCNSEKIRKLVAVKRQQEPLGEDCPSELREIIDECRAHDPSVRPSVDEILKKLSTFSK
How it was run: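 Kd from an immobilized-ligand competition format: the DNA-tagged kinase from HEK 293 expression is eluted and quantified by qPCR. Compounds added from 111× DMSO stocks, final DMSO 0.9%.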

MLKL [2] = target: T1, MLKL; test: MLKL degradation assay in HepG2 cell line (western blot); type: cell-based; set-up: endogenous in cells; host or cells: HepG2 or HaCaT; settings: cell line not given; for Degradation assay (Degradation %) 1 μM: compound 1 μM; for Degradation assay (Degradation %) 10 μM: compound 10 μM
How it was run: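 Cells seeded, next day medium swapped for compound-containing medium (final 1 or 10 μM) and incubated 20-24 h at 37 °C. Lysates in RIPA with protease/phosphatase inhibitors were protein-matched by BCA, run on SDS-PAGE and immunoblotted for MLKL.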

FADD−/− Jurkat cells = test: Necroptosis inhibition assay, TNF-α-induced necroptosis (CellTiter-Glo 2.0); type: cell-based, human; settings: TNF-α 15 ng/mL; for Necroptosis inhibition assay (Rescue %) 1 μM: compound 1 μM; for Necroptosis inhibition assay (Rescue %) 10 μM: compound 10 μM
How it was run: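 Luminescent ATP measurement gave viability, from which cytotoxicity and necroptosis inhibition rate were derived. Before that, cells (5.0×10^5 cells/mL) saw compound at 0.1, 1 or 10 μM final for 30 minutes at room temperature, then TNF-α (15 ng/mL final) for 20 to 24 hours at 37° C.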

Structure (SMILES) | pKd (MLKL [1]) | Degradation assay (Degradation %) 1 μM (MLKL [2]) | Degradation assay (Degradation %) 10 μM (MLKL [2]) | Necroptosis inhibition assay (Rescue %) 1 μM (FADD−/− Jurkat cells) | Necroptosis inhibition assay (Rescue %) 10 μM (FADD−/− Jurkat cells) | Necroptosis inhibition assay (Rescue %) 1 μM (FADD−/− Jurkat cells; FADD−/− Jurkat cells) | Necroptosis inhibition assay (Rescue %) 10 μM (FADD−/− Jurkat cells; FADD−/− Jurkat cells)
Nc1ncc(-c2cnn([C@@H]3CCN(CC4CCN(C(=O)COc5ccc6c(c5)C(=O)N(C5CCC(=O)NC5=O)C6=O)CC4)C3)c2)nc1C(=O)OC(C(=O)Nc1ccc(F)cc1)c1ccccc1 (stereo partly drawn) [TDH-288, 2-((4-fluorophenyl)amino)-2-oxo-1-phenylethyl 3-amino-6-(1-((3R)-1-((1-(2-((2-(2,6-dioxopiperidin-3-yl)-1,3-dioxoisoindolin-5-yl)oxy)acetyl)piperidin-4-yl)methyl)pyrrolidin-3-yl)-1H-pyrazol-4-yl)pyrazine-2-carboxylate] | 8.28 | 75.31% | 89.16% | 70.93% | 66.54% | – | –
Nc1ncc(-c2cnn(C3CCN(C(=O)CCC4CCN(C(=O)C5CN(c6cccc7c6C(=O)N(C6CCC(=O)NC6=O)C7=O)C5)CC4)CC3)c2)nc1C(=O)O[C@@H](C(=O)Nc1ccc(F)cc1)c1ccccc1 (stereo partly drawn) [TDH-427, (R)-2-((4-fluorophenyl)amino)-2-oxo-1-phenylethyl 3-amino-6-(1-(1-(3-(1-(1-(2-(2,6-dioxopiperidin-3-yl)-1,3-dioxoisoindolin-4-yl)azetidine-3-carbonyl)piperidin-4-yl)propanoyl)piperidin-4-yl)-1H-pyrazol-4-yl)pyrazine-2-carboxylate] | 8.62 | 75.94% | 59.59% | – | – | 5.57% | 9.73%
Nc1ncc(-c2cnn(C3CCN(CCC4CCN(c5ccc6c(c5)C(=O)N(C5CCC(=O)NC5=O)C6=O)CC4)CC3)c2)nc1C(=O)O[C@@H](C(=O)Nc1ccc(F)cc1)c1ccccc1 (stereo partly drawn) [TDH-203, (R)-2-((4-fluorophenyl)amino)-2-oxo-1-phenylethyl 3-amino-6-(1-(1-(2-(1-(2-(2,6-dioxopiperidin-3-yl)-1,3-dioxoisoindolin-5-yl)piperidin-4-yl)ethyl)piperidin-4-yl)-1H-pyrazol-4-yl)pyrazine-2-carboxylate] | 8.49 | 61.41% | 34.74% | 64.32% | 40.46% | – | –
Nc1ncc(-c2cnn(C3CCN(CCCC4CCN(C(=O)COc5ccc6c(c5)C(=O)N(C5CCC(=O)NC5=O)C6=O)CC4)CC3)c2)nc1C(=O)O[C@@H](C(=O)Nc1ccc(F)cc1)c1ccccc1 (stereo partly drawn) [TDH-482, (R)-2-((4-fluorophenyl)amino)-2-oxo-1-phenylethyl 3-amino-6-(1-(1-(3-(1-(2-((2-(2,6-dioxopiperidin-3-yl)-1,3-dioxoisoindolin-5-yl)oxy)acetyl)piperidin-4-yl)propyl)piperidin-4-yl)-1H-pyrazol-4-yl)pyrazine-2-carboxylate] | 8.92 | 91.19% | 88.98% | – | – | 78.94% | 42.16%
Nc1ncc(-c2cnn(C3CCN(CCC4CCN(C(=O)Cc5cccc(NC6=CC(=O)N(C7CCC(=O)NC7=O)C6=O)c5)CC4)CC3)c2)nc1C(=O)O[C@@H](C(=O)Nc1ccc(F)cc1)c1ccccc1 (stereo partly drawn) [TDH-518, (R)-2-((4-fluorophenyl)amino)-2-oxo-1-phenylethyl 3-amino-6-(1-(1-(2-(1-(2-(3-((1-(2,6-dioxopiperidin-3-yl)-2,5-dioxo-2,5-dihydro-1H-pyrrol-3-yl)amino)phenyl)acetyl)piperidin-4-yl)ethyl)piperidin-4-yl)-1H-pyrazol-4-yl)pyrazine-2-carboxylate] | 8.37 | 89.77% | 88.59% | – | – | 12.44% | −8.57%
Nc1ncc(-c2cnn(C3CCN(C(=O)CCC4CCN(C(=O)C5CCN(c6ccc7c(c6)C(=O)N(C6CCC(=O)NC6=O)C7=O)CC5)CC4)CC3)c2)nc1C(=O)O[C@@H](C(=O)Nc1ccc(F)cc1)c1ccccc1 (stereo partly drawn) [TDH-418, (R)-2-((4-fluorophenyl)amino)-2-oxo-1-phenylethyl 3-amino-6-(1-(1-(3-(1-(1-(2-(2,6-dioxopiperidin-3-yl)-1,3-dioxoisoindolin-5-yl)piperidine-4-carbonyl)piperidin-4-yl)propanoyl)piperidin-4-yl)-1H-pyrazol-4-yl)pyrazine-2-carboxylate] | 8.40 | 79.05% | 58.33% | – | – | 28.11% | 17.31%
Nc1ncc(-c2cnn(C3CCN(CCOCCOCCOCCNC(=O)C4CN(c5cccc6c5C(=O)N(C5CCC(=O)NC5=O)C6=O)C4)CC3)c2)nc1C(=O)O[C@@H](C(=O)Nc1ccc(F)cc1)c1ccccc1 (stereo partly drawn) [TDH-141, (R)-2-((4-fluorophenyl)amino)-2-oxo-1-phenylethyl 3-amino-6-(1-(1-(1-(1-(2-(2,6-dioxopiperidin-3-yl)-1,3-dioxoisoindolin-4-yl)azetidin-3-yl)-1-oxo-5,8,11-trioxa-2-azatridecan-13-yl)piperidin-4-yl)-1H-pyrazol-4-yl)pyrazine-2-carboxylate] | 8.09 | 17.47% | 58.93% | 2.72% | 10.22% | – | –
Nc1ncc(-c2cnn(C3CCN(CCCN4CCN(C(=O)COc5cccc6c5C(=O)N(C5CCC(=O)NC5=O)C6=O)CC4)CC3)c2)nc1C(=O)OC(C(=O)Nc1ccc(F)cc1)c1ccccc1 (centres unmarked) [TDH-243, 2-((4-fluorophenyl)amino)-2-oxo-1-phenylethyl 3-amino-6-(1-(1-(3-(4-(2-((2-(2,6-dioxopiperidin-3-yl)-1,3-dioxoisoindolin-4-yl)oxy)acetyl)piperazin-1-yl)propyl)piperidin-4-yl)-1H-pyrazol-4-yl)pyrazine-2-carboxylate] | 9.03 | 57.14% | 54.82% | 61.25% | 53.31% | – | –
Nc1ncc(-c2cnn(C3CCN(CCC4CCN(C(=O)C5CCN(c6cccc7nnn(C8CCC(=O)NC8=O)c(=O)c67)CC5)CC4)CC3)c2)nc1C(=O)OC(C(=O)Nc1ccc(F)cc1)c1ccccc1 (centres unmarked) [TDH-289, 2-((4-fluorophenyl)amino)-2-oxo-1-phenylethyl 3-amino-6-(1-(1-(2-(1-(1-(3-(2,6-dioxopiperidin-3-yl)-4-oxo-3,4-dihydrobenzo[d][1,2,3]triazin-5-yl)piperidine-4-carbonyl)piperidin-4-yl)ethyl)piperidin-4-yl)-1H-pyrazol-4-yl)pyrazine-2-carboxylate] | 8.66 | 66.33% | 43.03% | 67.46% | 61.24% | – | –
Nc1ncc(-c2cnn(C3CCN(CCC4CCN(C(=O)c5ccc(C(=O)NC6CCC(=O)NC6=O)cc5)CC4)CC3)c2)nc1C(=O)O[C@@H](C(=O)Nc1ccc(F)cc1)c1ccccc1 (stereo partly drawn) [TDH-536, (R)-2-((4-fluorophenyl)amino)-2-oxo-1-phenylethyl 3-amino-6-(1-(1-(2-(1-(4-((2,6-dioxopiperidin-3-yl)carbamoyl)benzoyl)piperidin-4-yl)ethyl)piperidin-4-yl)-1H-pyrazol-4-yl)pyrazine-2-carboxylate] | 9.66 | 46.11% | 56.40% | – | – | 31.84% | 21.93%

— patent publication US20240252488A1 (KOREA RESEARCH INSTITUTE OF CHEMICAL TECHNOLOGY, priority 2020, published 2024)
